pIC50: −log10 of the molar value.
Tests used:
human recombinant HDAC1 = target: T1, human recombinant HDAC1 (Homo sapiens, UniProt Q13547); assay: HDAC1 enzyme activity inhibition (HDAC Fluorimetric Drug Discovery Kit); type: biochemical; conditions: human recombinant HDAC1, Fluor de Lys substrate, 30° C. 60 minutes; read-out: HDAC1
T1 construct: purchased Enzo Life Science, Inc. BML-SE456
Outline: (§1)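 Fluorescence from a Fluor de Lys developer step (30 minutes) reports residual deacetylation after a 60-minute, 30° C reaction of […] enzyme with 10 μM substrate and 5-fold compound dilutions.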

human recombinant HDAC6 = target: T2, human recombinant HDAC6 (Homo sapiens, UniProt Q9UBN7); assay: HDAC6 enzyme activity inhibition (HDAC Fluorimetric Drug Discovery Kit); type: biochemical; conditions: for HDAC6 selectivity (fold): HDAC6 over HDAC1; for pIC50: human recombinant HDAC6, same protocol as HDAC1
T2 construct: purchased Calbiochem Inc. 382180
T2 sequence (Q9UBN7 1-1215): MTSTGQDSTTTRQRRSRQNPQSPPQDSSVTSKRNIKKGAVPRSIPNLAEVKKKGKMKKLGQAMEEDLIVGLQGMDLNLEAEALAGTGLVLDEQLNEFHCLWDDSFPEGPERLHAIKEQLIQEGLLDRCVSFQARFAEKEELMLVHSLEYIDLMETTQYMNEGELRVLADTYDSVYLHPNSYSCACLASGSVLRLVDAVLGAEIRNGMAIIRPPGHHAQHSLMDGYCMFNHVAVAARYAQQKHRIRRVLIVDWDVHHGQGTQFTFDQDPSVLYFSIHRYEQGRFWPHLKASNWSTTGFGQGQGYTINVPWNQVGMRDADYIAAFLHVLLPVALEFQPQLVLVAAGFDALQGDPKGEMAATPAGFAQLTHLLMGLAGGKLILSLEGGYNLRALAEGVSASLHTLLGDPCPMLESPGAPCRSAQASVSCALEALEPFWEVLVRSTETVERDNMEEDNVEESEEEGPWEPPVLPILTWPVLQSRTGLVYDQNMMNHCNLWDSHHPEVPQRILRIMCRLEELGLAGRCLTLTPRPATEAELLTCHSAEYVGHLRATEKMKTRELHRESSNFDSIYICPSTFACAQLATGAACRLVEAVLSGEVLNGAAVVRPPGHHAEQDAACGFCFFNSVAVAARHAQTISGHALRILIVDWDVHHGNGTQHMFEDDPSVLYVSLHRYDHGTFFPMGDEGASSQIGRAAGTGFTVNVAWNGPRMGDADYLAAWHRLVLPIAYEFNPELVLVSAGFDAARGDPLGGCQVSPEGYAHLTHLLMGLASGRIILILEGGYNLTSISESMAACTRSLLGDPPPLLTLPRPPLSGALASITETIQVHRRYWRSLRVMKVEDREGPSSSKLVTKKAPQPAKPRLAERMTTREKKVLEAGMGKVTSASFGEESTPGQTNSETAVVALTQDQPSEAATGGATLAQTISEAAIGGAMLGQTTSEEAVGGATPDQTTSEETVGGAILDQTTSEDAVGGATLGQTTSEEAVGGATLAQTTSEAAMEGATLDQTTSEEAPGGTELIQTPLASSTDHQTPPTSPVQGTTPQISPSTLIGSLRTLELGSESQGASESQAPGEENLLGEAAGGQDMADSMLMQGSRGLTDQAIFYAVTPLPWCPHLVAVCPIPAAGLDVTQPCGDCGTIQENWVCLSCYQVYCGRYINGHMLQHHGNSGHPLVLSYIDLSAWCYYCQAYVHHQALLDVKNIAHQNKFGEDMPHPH
Outline: as §1

T1 sequence (Q13547 whole entry): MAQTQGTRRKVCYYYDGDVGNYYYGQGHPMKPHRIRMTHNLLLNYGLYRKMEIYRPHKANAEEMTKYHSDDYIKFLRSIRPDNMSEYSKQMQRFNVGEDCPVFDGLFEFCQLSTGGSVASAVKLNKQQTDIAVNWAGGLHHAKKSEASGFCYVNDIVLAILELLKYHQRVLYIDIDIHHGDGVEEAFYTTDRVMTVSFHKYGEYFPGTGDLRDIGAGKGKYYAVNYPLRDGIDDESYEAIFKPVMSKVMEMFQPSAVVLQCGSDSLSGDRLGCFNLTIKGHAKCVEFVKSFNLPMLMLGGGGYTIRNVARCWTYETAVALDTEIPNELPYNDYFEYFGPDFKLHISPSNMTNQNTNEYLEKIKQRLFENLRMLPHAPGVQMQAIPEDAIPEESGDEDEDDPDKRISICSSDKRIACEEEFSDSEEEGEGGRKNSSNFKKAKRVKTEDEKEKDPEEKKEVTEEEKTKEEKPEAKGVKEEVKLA

In the case of `Fc1cc(-c2cn(Cc3ncc(-c4nnc(C(F)F)o4)cc3F)nn2)ccc1CN1CCC1` [Compound 18947, 2-(6-((4-(4-(azetidin-1-ylmethyl)-3-fluorophenyl)-1H-1,2,3-triazol-1-yl)methyl)-5-fluoropyridin-3-yl)-5-(difluoromethyl)-1,3,4-oxadiazole], the pIC50 (human recombinant HDAC1) was < 4.30, the “HDAC6 selectivity (fold)” value (human recombinant HDAC6) was 1262 fold and the pIC50 (human recombinant HDAC6) was 7.40.
For `Fc1cc(-c2cn(Cc3ncc(-c4nnc(C(F)F)o4)cc3F)nn2)ccc1CN1CCCC1` [Compound 18948, 2-(difluoromethyl)-5-(5-fluoro-6-((4-(3-fluoro-4-(pyrrolidin-1-ylmethyl)phenyl)-1H-1,2,3-triazol-1-yl)methyl)pyridin-3-yl)-1,3,4-oxadiazole], the pIC50 (human recombinant HDAC1) was < 4.30, the “HDAC6 selectivity (fold)” value (human recombinant HDAC6) was 856 fold and the pIC50 (human recombinant HDAC6) was 7.23.
With `CN(C)Cc1ccc(-c2cn(Cc3ncc(-c4nnc(C(F)F)o4)cc3F)nn2)cc1F` [Compound 18949, 1-(4-(1-((5-(5-(difluoromethyl)-1,3,4-oxadiazol-2-yl)-3-fluoropyridin-2-yl)methyl)-1H-1,2,3-triazol-4-yl)-2-fluorophenyl)-N,N-dimethylmethanamine] the pIC50 (human recombinant HDAC1) was < 4.30, the “HDAC6 selectivity (fold)” value (human recombinant HDAC6) was 759 fold and the pIC50 (human recombinant HDAC6) was 7.18.
In the case of `Fc1cc(-c2cn(Cc3ncc(-c4nnc(C(F)F)o4)cc3F)nn2)ccc1CN1CCCCC1` [Compound 18950, 2-(difluoromethyl)-5-(5-fluoro-6-((4-(3-fluoro-4-(piperidin-1-ylmethyl)phenyl)-1H-1,2,3-triazol-1-yl)methyl)pyridin-3-yl)-1,3,4-oxadiazole], the pIC50 (human recombinant HDAC1) was < 4.30, the “HDAC6 selectivity (fold)” value (human recombinant HDAC6) was 570 fold and the pIC50 (human recombinant HDAC6) was 7.06.
`C[C@@H]1CN(c2cccc(-c3cn(Cc4ncc(-c5nnc(C(F)F)o5)cc4F)nn3)c2)C[C@H](C)N1C` [Compound 18961, 2-(difluoromethyl)-5-(5-fluoro-6-((4-(3-((3R,5S)-3,4,5-trimethylpiperazin-1-yl)phenyl)-1H-1,2,3-triazol-1-yl)methyl)pyridin-3-yl)-1,3,4-oxadiazole] was tested, and the pIC50 (human recombinant HDAC1) was < 4.30, the “HDAC6 selectivity (fold)” value (human recombinant HDAC6) was 782 fold and the pIC50 (human recombinant HDAC6) was 7.19.
`CN1CCc2ccc(-c3cn(Cc4ncc(-c5nnc(C(F)F)o5)cc4F)nn3)cc2C1` [Compound 19002, 2-(difluoromethyl)-5-(5-fluoro-6-((4-(2-methyl-1,2,3,4-tetrahydroisoquinolin-7-yl)-1H-1,2,3-triazol-1-yl)methyl)pyridin-3-yl)-1,3,4-oxadiazole] was tested, and the pIC50 (human recombinant HDAC1) was < 4.30, the “HDAC6 selectivity (fold)” value (human recombinant HDAC6) was 587 fold and the pIC50 (human recombinant HDAC6) was 7.07.
For `Fc1cc(-c2nnc(C(F)F)o2)cnc1Cn1cc(-c2ccc3c(c2)CN(C2CCC2)CC3)nn1` [Compound 19004], the pIC50 (human recombinant HDAC1) was < 4.30, the “HDAC6 selectivity (fold)” value (human recombinant HDAC6) was 640 fold and the pIC50 (human recombinant HDAC6) was 7.11.
For `CN1CCC(c2ccc(-c3cn(Cc4ncc(-c5nnc(C(F)F)o5)cc4F)nn3)cc2)CC1` [Compound 19087, 2-(difluoromethyl)-5-(5-fluoro-6-((4-(4-(1-methylpiperidin-4-yl)phenyl)-1H-1,2,3-triazol-1-yl)methyl)pyridin-3-yl)-1,3,4-oxadiazole], the pIC50 (human recombinant HDAC1) was < 4.30, the “HDAC6 selectivity (fold)” value (human recombinant HDAC6) was 650 fold and the pIC50 (human recombinant HDAC6) was 7.11.
For `CN(C)Cc1cccc(-c2cn(Cc3ncc(-c4nnc(C(F)F)o4)cc3F)nn2)c1Cl` [Compound 19088, 1-(2-chloro-3-(1-((5-(5-(difluoromethyl)-1,3,4-oxadiazol-2-yl)-3-fluoropyridin-2-yl)methyl)-1H-1,2,3-triazol-4-yl)phenyl)-N,N-dimethylmethanamine], the pIC50 (human recombinant HDAC1) was < 4.30, the “HDAC6 selectivity (fold)” value (human recombinant HDAC6) was 639 fold and the pIC50 (human recombinant HDAC6) was 7.11.
For `Fc1cc(-c2nnc(C(F)F)o2)cnc1Cn1cc(-c2cccc(CN3CCCC3)c2Cl)nn1` [Compound 19089], the pIC50 (human recombinant HDAC1) was < 4.30, the “HDAC6 selectivity (fold)” value (human recombinant HDAC6) was 665 fold and the pIC50 (human recombinant HDAC6) was 7.12.
`CN(C)Cc1cc(Cl)cc(-c2cn(Cc3ncc(-c4nnc(C(F)F)o4)cc3F)nn2)c1` [Compound 19090, 1-(3-chloro-5-(1-((5-(5-(difluoromethyl)-1,3,4-oxadiazol-2-yl)-3-fluoropyridin-2-yl)methyl)-1H-1,2,3-triazol-4-yl)phenyl)-N,N-dimethylmethanamine] was tested, and the pIC50 (human recombinant HDAC1) was < 4.30, the “HDAC6 selectivity (fold)” value (human recombinant HDAC6) was 728 fold and the pIC50 (human recombinant HDAC6) was 7.16.
For `Fc1cc(-c2nnc(C(F)F)o2)cnc1Cn1cc(-c2cc(Cl)cc(CN3CCC3)c2)nn1` [Compound 19091, 2-(6-((4-(3(-azetidin-1-ylmethyl)-5-chlorophenyl)-1H-1,2,3-triazol-1-yl)methyl)-5-fluoropyridin-3-yl)-5-(difluoromethyl)-1,3,4-oxadiazole], the pIC50 (human recombinant HDAC1) was < 4.30, the “HDAC6 selectivity (fold)” value (human recombinant HDAC6) was 435 fold and the pIC50 (human recombinant HDAC6) was 6.94.
For `Fc1cc(-c2nnc(C(F)F)o2)cnc1Cn1cc(-c2cc(Cl)cc(CN3CCCC3)c2)nn1` [Compound 19092, 2-(6-((4-(3-chloro-5-(pyrrolidin-1-ylmethyl)phenyl)-1H-1,2,3-triazol-1-yl)methyl)-5-fluoropyridin-3-yl)-5-(difluoromethyl)-1,3,4-oxadiazole], the pIC50 (human recombinant HDAC1) was < 4.30, the “HDAC6 selectivity (fold)” value (human recombinant HDAC6) was 541 fold and the pIC50 (human recombinant HDAC6) was 7.03.
With `CC1CCN(Cc2cc(Cl)cc(-c3cn(Cc4ncc(-c5nnc(C(F)F)o5)cc4F)nn3)c2)CC1` [Compound 19093, 2-(6-((4-(3-chloro-5-((4-methylpiperidin-1-yl)methyl)phenyl)-1H-1,2,3-triazol-1-yl)methyl)-5-fluoropyridin-3-yl)-5-(difluoromethyl)-1,3,4-oxadiazole] the pIC50 (human recombinant HDAC1) was < 4.30, the “HDAC6 selectivity (fold)” value (human recombinant HDAC6) was 211 fold and the pIC50 (human recombinant HDAC6) was 6.63.
For `CN(C)Cc1ccc(-c2cn(Cc3ncc(-c4nnc(C(F)F)o4)cc3F)nn2)cc1Cl` [Compound 19094, 1-(2-chloro-4-(1-((5-(5-(difluoromethyl)-1,3,4-oxadiazol-2-yl)-3-fluoropyridin-2-yl)methyl)-1H-1,2,3-triazol-4-yl)phenyl)-N,N-dimethylmethanamine], the pIC50 (human recombinant HDAC1) was < 4.30, the “HDAC6 selectivity (fold)” value (human recombinant HDAC6) was 510 fold and the pIC50 (human recombinant HDAC6) was 7.01.
In the case of `Fc1cc(-c2nnc(C(F)F)o2)cnc1Cn1cc(-c2ccc(CN3CCCC3)c(Cl)c2)nn1` [Compound 19096], the pIC50 (human recombinant HDAC1) was < 4.30, the “HDAC6 selectivity (fold)” value (human recombinant HDAC6) was 529 fold and the pIC50 (human recombinant HDAC6) was 7.03.
For `CN(C)Cc1ccc(-c2cn(Cc3ncc(-c4nnc(C(F)F)o4)cc3F)nn2)c(Cl)c1` [Compound 19098, 1-(3-chloro-4-(1-((5-(5-(difluoromethyl)-1,3,4-oxadiazol-2-yl)-3-fluoropyridin-2-yl)methyl)-1H-1,2,3-triazol-4-yl)phenyl)-N,N-dimethylmethanamine], the pIC50 (human recombinant HDAC1) was < 4.30, the “HDAC6 selectivity (fold)” value (human recombinant HDAC6) was 1315 fold and the pIC50 (human recombinant HDAC6) was 7.42.
For `Fc1cc(-c2nnc(C(F)F)o2)cnc1Cn1cc(-c2ccc(CN3CCC3)cc2Cl)nn1` [Compound 19099, 2-(6-((4-(4-(azetidin-1-ylmethyl)-2-chlorophenyl)-1H-1,2,3-triazol-1-yl)methyl)-5-fluoropyridin-3-yl)-5-(difluoromethyl)-1,3,4-oxadiazole], the pIC50 (human recombinant HDAC1) was < 4.30, the “HDAC6 selectivity (fold)” value (human recombinant HDAC6) was 1061 fold and the pIC50 (human recombinant HDAC6) was 7.33.
In the case of `Fc1cc(-c2nnc(C(F)F)o2)cnc1Cn1cc(-c2ccc(CN3CCCC3)cc2Cl)nn1` [Compound 19100, 2-(6-((4-(2-chloro-4-(pyrrolidin-1-ylmethyl)phenyl)-1H-1,2,3-triazol-1-yl)methyl)-5-fluoropyridin-3-yl)-5-(difluoromethyl)-1,3,4-oxadiazole], the pIC50 (human recombinant HDAC1) was < 4.30, the “HDAC6 selectivity (fold)” value (human recombinant HDAC6) was 868 fold and the pIC50 (human recombinant HDAC6) was 7.24.
